Data: paper PMC10182601, “Biological evaluation of novel gemcitabine analog in patient-derived xenograft models of pancreatic cancer” (BMC Cancer, 2023)
Structures can show the parent of a compound that is named as a salt.

How the values were obtained:
HER2 = assay: Immunohistochemistry of PDX tumor tissue, HER2; type: in vivo, mice
[1] = test system: PCa PDX tumor from White patients; assay: Tumor efficacy in PDX mice bearing tumors from White PCa patients; type: in vivo; details: 30 mg/kg Gem equivalent i.v. twice weekly for 3 weeks
Excerpt: The implantation of surgical tumor tissue into immuno-compromised mice was described previously. A viable portion of resected tissue 2 × 2 mm in size was briefly isolated immediately from surgically resected primary PCa specimens (from Blacks and White patients) with care to minimize critical ischemia time. The PCa tissues were then implanted subcutaneously into an 8-week-old mouse (The Jackson Laboratory, Bar Harbor, ME). The xenografts were allowed to grow to a maximum diameter of 1.5 cm before passage and in vitro culture.
Mice-bearing surgically implanted tumors obtained from Black and White patients with sizes of 70–100 mm^3 were randomized into groups as control, GemHCl, and 4NSG-SLN (n = 5/group). Baseline tumor volume was established, and dosing initiation began on day 1 with intravenous administration of 30 mg/kg Gem (twice weekly for 3 weeks) with an equivalent dose of GemHCl and 4NSG-SLN [42]. Once tumors became palpable, their volume was measured thrice per week, and the mice's weight was recorded twice weekly. Tumor volumes were measured using digital calipers and calculated using the following equation: V = (L*(W)^2)/2, where V is the volume (mm^3), W(width) is the smaller of two perpendicular tumor axes, and the L (length) is the larger of two vertical axes. Mean tumor volume growth curves were calculated for each treatment group.

EGFR = assay: Immunohistochemistry of PDX tumor tissue, EGFR; type: in vivo, mice; details: for EGFR % Moderate Positive Cells / EGFR % Positive / EGFR % Strong Positive Cells / EGFR % Weak Positive Cells / EGFR %Negative Cells / EGFR H Score: IHC
Procedure: [The source words this procedure for another target and reports this target under the same test.] (§1) Tissue samples from mice bearing tumors from Black and White PCa patients post treatments with GemHCl and 4NSG-SLN were excised and immediately washed with PBS, fixed (10% buffered formalin) for 24 h, and transferred to 70% ethanol for histopathological analysis. Histology was performed by HistoWiz Inc. (Histowiz.com) according to manufacturer protocol. Samples were embedded in paraffin, and 4 μm sections were prepared. Immunohistochemistry was performed on a Bond Rx autostainer (Leica Biosystems) with enzyme treatment (1:1000) using standard protocols (https://home.histowiz.com/faq/). Samples were incubated overnight with primary antibodies (Antibodies used were rat monoclonal F4/80 primary antibody (eBioscience, 14–4801, and 1:200), and immunohistochemical staining was done using rabbit anti-rat secondary (Vector Labs, 1:100). Bond Polymer Refine Detection was used per the manufacturer's protocol (Leica Biosystems). After staining, sections were dehydrated and filmed, coverslipped using a Tissue-Tek Prisma coverslip (Sakura). Whole slide scanning (40x) was performed on an Aperio AT2 (Leica Biosystems).

VEGFR = assay: Immunohistochemistry of PDX tumor tissue, VEGFR; type: in vivo, mice; details: for VEGF % Moderate Positive Cells / VEGF % Positive / VEGF % Weak Positive Cells / VEGF H Score / VEGF % Strong Positive Cells: IHC
Procedure: [The source words this procedure for another target and reports this target under the same test.] as §1

[2] = Pharmacokinetic study in mice (i.v. bolus); type: in vivo; details: single i.v. bolus, Gem equivalent (b110 prints 20 mg/kg)
Procedure: For pharmacokinetic (PK) studies, normal healthy mice were grouped into control, GemHCl, and 4NSG-SLN. […] After the injection, aliquots of blood samples were collected at predetermined time points (5, 10, 15, 30, 60, 120, 240, 360, 720, and 1440 min). Blood samples collected were treated with 2 mL of an extraction solvent (15% of isopropyl alcohol in ethyl acetate). The mixture was vortexed for 30 s and centrifuged at 3,000 rpm for 15 min, and the supernatant was collected and vaporized to dry overnight in a water bath. Residual solvent was removed by placing the dried samples in vacuum chamber.
Five hundred microliters (500 uL) of mobile phase solution was used to reconstitute the dried sample (mobile phase solution was made up of 5% acetonitrile in 10 mM dihydrogen phosphate buffer, pH adjusted to 3). The sample solution was centrifuged at 3,000 rpm for 15 min, supernatant collected and filtered, and samples analyzed for Gem using HPLC. The PK parameters were determined using PKSolver software.
To determine the concentration of Gem, supernatant from mouse plasma was spiked with aliquots of 0.5 μg/ml of Gem. The chromatographic analysis was performed according to the method described with minor modifications. The samples were collected using supernatants (10µL), aliquots of control (spiked), and mouse plasma. The chromatographic system consisted of an HPLC (Agilent Technologies, 1290 infinity) equipped with an auto-sampler, diode array detector (DAD), and pumps. Separation was performed using a reverse phase column (Zobrax Rapid Resolution High Definition (RRHD) Eclipse plus C18, 2.1 × 50 mm, 1.8 µm). A flow rate of 250 µL/min and injection volume of 10 μL at ambient temperature was maintained at 25 ± 1 °C while detection was performed at 268 nm. Before analysis, the reverse phase column was equilibrated with a mobile phase of 5% acetonitrile in 10 mM dihydrogen phosphate buffer, pH adjusted to 2.5 with trifluoroacetic acid (TFA). Isocratic elution was performed throughout the entire analysis, including internal standards. A calibration curve was prepared using Gem standard solutions with a concentration range of 0.063–2.0 μg/mL. A plot of the peak areas as a function of Gem concentration was plotted, and the linear equation of the calibration curve given as y = mx + c was determined, where y is the peak area, m is the slope, x is the concentration of Gem, and c is the y—intercept.

[3] = BT PDX tumor tissue after treatment, IHC
[4] = BT and WT PDX tumor tissues, 40X
[5] = WT PDX tumor tissue after treatment, IHC
[6] = BT PDX tumor tissue after treatment
[7] = WT PDX tumor tissue after treatment

## Nc1ccn([C@@H]2O[C@H](CO)[C@@H](O)C2(F)F)c(=O)n1 [GemHCl, Gemcitabine hydrochloride]
HER2; [3]
  HER2 % Moderate Positive Cells: 7.2 ± 4.3%
  HER2 % Positive: 17.2 ± 1.0%
  HER2 % Strong Positive Cells: 3.7 ± 0.8%
  HER2 % Weak Positive Cells: 9.3 ± 1.4%
  HER2 %Negative Cells: 62.6 ± 3.4%
  HER2 H Score: 31.8
HER2; [4]
  HER2 expression in representative IHC images: moderate to high
HER2; [5]
  HER2 % Positive: 19.9 ± 1.5%
  HER2 % Strong Positive Cells: 3.6 ± 1.2%
  HER2 % Weak Positive Cells: 8.9 ± 0.8%
  HER2 %Negative Cells: 57.4 ± 7.3%
  HER2 H Score: 30.9
[1]; day 0, WT (patient tumor) PDX mice
  Mean terminal tumor volume: 0 mm^3
[1]; day 1, WT PDX mice
  Mean terminal tumor volume: 13.9 ± 2 mm^3
[1]; day 3, WT PDX mice
  Mean terminal tumor volume: 27.8 ± 4 mm^3
[1]; day 5, WT PDX mice
  Mean terminal tumor volume: 39.7 ± 5 mm^3
[1]; day 7, WT PDX mice
  Mean terminal tumor volume: 43.5 ± 16 mm^3
[1]; day 9, WT PDX mice
  Mean terminal tumor volume: 177.8 ± 60 mm^3
[1]; day 11, WT PDX mice
  Mean terminal tumor volume: 583.2 ± 227 mm^3
[1]; day 13, WT PDX mice
  Mean terminal tumor volume: 646.9 ± 240 mm^3
[1]; day 15, WT PDX mice
  Mean terminal tumor volume: 752.6 ± 241 mm^3
[1]; day 17, WT PDX mice
  Mean terminal tumor volume: 850.8 ± 205 mm^3
[1]; day 19, WT PDX mice
  Mean terminal tumor volume: 868.2 ± 294 mm^3
[1]; day 21, WT PDX mice
  Mean terminal tumor volume: 1053 ± 86 mm^3
[1]; day 23, WT PDX mice
  Mean terminal tumor volume: 1344.7 ± 171 mm^3
[1]; day 25, WT PDX mice
  Mean terminal tumor volume: 1748.2 ± 223 mm^3
EGFR; [6]
  EGFR % Moderate Positive Cells: 0.6 ± 0.2%
  EGFR % Positive: 25 ± 4.5%
  EGFR % Strong Positive Cells: 0.5 ± 0.1%
  EGFR % Weak Positive Cells: 1.4 ± 0.1%
  EGFR %Negative Cells: 72.5 ± 1.5%
  EGFR H Score: 3.0
EGFR; [4]
  EGFR expression in representative IHC images: moderate to high
EGFR; [7]
  EGFR % Moderate Positive Cells: 3.1 ± 2.1%
  EGFR % Positive: 20 ± 10%
  EGFR % Strong Positive Cells: 2.3 ± 1.5%
  EGFR % Weak Positive Cells: 2.7 ± 0.7%
  EGFR %Negative Cells: 71.9 ± 1.6%
  EGFR H Score: 22.1
VEGFR; [6]
  VEGF % Moderate Positive Cells: 0.6 ± 0.2%
  VEGF % Positive: 27 ± 0.4%
  VEGF % Weak Positive Cells: 1.2 ± 0.3%
  VEGF H Score: 4.7
VEGFR; BT PDX tumor tissue after treatment, first line of this name (r21)
  VEGF % Strong Positive Cells: 0.5 ± 0.1%
VEGFR; BT PDX tumor tissue after treatment, second line of this name (r22)
  VEGF % Strong Positive Cells: 70.7 ± 7.8%
VEGFR; [4]
  VEGFR expression in representative IHC images: moderate to high
VEGFR; [7]
  VEGF % Moderate Positive Cells: 0.6 ± 0.1%
  VEGF % Positive: 30 ± 1.4%
  VEGF % Weak Positive Cells: 0.7 ± 0.3%
  VEGF H Score: 10.0
VEGFR; WT PDX tumor tissue after treatment, first line of this name (r21)
  VEGF % Strong Positive Cells: 0.7 ± 0.3%
VEGFR; WT PDX tumor tissue after treatment, second line of this name (r22)
  VEGF % Strong Positive Cells: 68 ± 3.8%
[2]; mouse, plasma, iv, read-out: Cl (clearance) (converted)
  clearance: 0.355 mL/min
[2]; mouse, plasma, iv, read-out: Vd (volume of distribution)
  Vd: 0.0217 ± 0.0019 L
[2]; mouse, plasma, iv, read-out: k10 (elimination rate constant) (converted)
  k el: 0.000281 s⁻¹
[2]; mouse, plasma, iv, read-out: t1/2 (half-life) (converted)
  half-life: 42 ± 0.6 min
[2]
  AUC(0-t): 28200 ± 4300 ng·h/mL
